Laboratory results taken from patent US20240246964A1 (Arbutus Biopharma Corporation, priority 2021, published 2024).
pEC50, pIC50: −log10 of the molar value.

What was measured:
human PD-L1 = human PD-L1 (Homo sapiens (Human), UniProt Q9NZQ7); experiment: T cell activation luciferase reporter cell culture system (T Cell Activation Assay); type: cell-based; conditions: luciferase reporter assay; PD-L1 aAPC/CHO-K1 cells with PD-1 effector Jurkat T cells
[1] = target: PD-L1 His protein / PD-1 Fc protein (Homo sapiens (Human), UniProt Q9NZQ7); experiment: HTRF Assay (PD-1/PD-L1 interaction); type: binding; conditions: PD-L1 His 6 nM, PD-1 Fc 6 nM
Sequence of PD-L1 His protein / PD-1 Fc protein (Q9NZQ7 19-238): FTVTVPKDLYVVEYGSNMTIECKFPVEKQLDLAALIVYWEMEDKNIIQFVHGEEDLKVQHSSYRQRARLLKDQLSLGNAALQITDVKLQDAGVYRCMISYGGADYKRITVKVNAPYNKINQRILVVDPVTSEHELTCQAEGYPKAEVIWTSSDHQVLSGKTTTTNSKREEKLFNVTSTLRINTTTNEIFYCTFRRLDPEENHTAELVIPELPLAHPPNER

Sequence of human PD-L1 (Q9NZQ7 19-290): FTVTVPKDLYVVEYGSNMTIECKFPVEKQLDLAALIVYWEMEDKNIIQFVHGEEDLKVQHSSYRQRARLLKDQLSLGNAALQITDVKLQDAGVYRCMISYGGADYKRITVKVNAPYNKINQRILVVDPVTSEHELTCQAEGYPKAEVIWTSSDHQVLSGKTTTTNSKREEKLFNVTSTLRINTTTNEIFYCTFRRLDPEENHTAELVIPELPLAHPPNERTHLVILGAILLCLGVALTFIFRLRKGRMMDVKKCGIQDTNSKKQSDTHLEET

Compound	pEC50 (human PD-L1)	pIC50 [1]
COc1nc(-c2cccc(-c3ccnc(-c4ccc5c(CNC6CCN(C(C)=O)CC6)cn(C)c5c4)c3Cl)c2Cl)ccc1CNC[C@@H]1CCC(=O)N1 [Compound 28, (S)-5-((((6-(3-(2-(3-(((1-acetylpiperidin-4-yl)amino)methyl)-1-methyl-1H-indol-6-yl)-3-chloropyridin-4-yl)-2-chlorophenyl)-2-methoxypyridin-3-yl)methyl)amino)methyl)pyrrolidin-2-one]	7.32	8.92
COc1nc(-c2cccc(-c3ccnc(-c4ccc5c(c4)OCCNC5)c3Cl)c2Cl)ccc1CNC[C@@H]1CCC(=O)N1 [Compound 26, (S)-5-((((6-(2-chloro-3-(3-chloro-2-(2,3,4,5-tetrahydrobenzo[f][1,4]oxazepin-8-yl)pyridin-4-yl)phenyl)-2-methoxypyridin-3-yl)methyl)amino)methyl)pyrrolidin-2-one]	7.11	9.70
COc1cc(-c2nccc(-c3cccc(-c4ccc(CN5CC6(C5)CN(C(C)=O)C6)c(OC)n4)c3Cl)c2Cl)ccc1CNC1CCN(C(C)=O)CC1 [Example 483, 1-(4-((4-(4-(3-(5-((6-acetyl-2,6-diazaspiro[3.3]heptan-2-yl)methyl)-6-methoxypyridin-2-yl)-2-chlorophenyl)-3-chloropyridin-2-yl)-2-methoxybenzyl)amino)piperidin-1-yl)ethan-1-one]	7.40	8.58
COc1nc(-c2cccc(-c3ccnc(-c4ccc5c(c4)CCCC5NC[C@H](C)O)c3Cl)c2Cl)ccc1CNC[C@@H]1CCC(=O)N1 (mixture of isomers) [Compound 113, (5S)-5-((((6-(2-chloro-3-(3-chloro-2-(5-(((S)-2-hydroxypropyl)amino)-5,6,7,8-tetrahydronaphthalen-2-yl)pyridin-4-yl)phenyl)-2-methoxypyridin-3-yl)methyl)amino)methyl)pyrrolidin-2-one]	6.73	9.15
COc1cc(-c2nccc(-c3cccc(-c4ccc(C5=NCCN5)c(OC)n4)c3Cl)c2Cl)ccc1CNC[C@@H](O)CC(=O)O [Compound 180, (S)-4-((4-(3-chloro-4-(2-chloro-3-(5-(4,5-dihydro-1H-imidazol-2-yl)-6-methoxypyridin-2-yl)phenyl)pyridine-2-yl)-2-methoxybenzyl)amino)-3-hydroxybutanoic acid]	7.44	8.25
COc1cc(-c2nccc(-c3cccc(-c4ccc(CN5CC6(CNC(=O)C6)C5)c(OC)n4)c3Cl)c2Cl)cnc1CNC[C@@H]1CCC(=O)N1 [Compound 550, (S)-2-((6-(2-Chloro-3-(3-chloro-5′-methoxy-6′-((((5-oxopyrrolidin-2-yl)methyl)amino)methyl)-[2,3′-bipyridin]-4-yl)phenyl)-2-methoxypyridin-3-yl)methyl)-2,6-diazaspiro[3.4]octan-7-one]	7.60	9.55
CCOc1cc(-c2nccc(-c3cccc(-c4ccc(CNC5CCN(C(C)=O)CC5)c(OC)n4)c3Cl)c2Cl)cn2nc(CN[C@H]3C[C@](C)(O)C3)nc12 [Example 584, 1-(4-(((6-(2-Chloro-3-(3-chloro-2-(8-ethoxy-2-((((1r,3r)-3-hydroxy-3-methylcyclobutyl)amino)methyl)-[1,2,4]triazolo[1,5-a]pyridin-6-yl)pyridin-4-yl)phenyl)-2-methoxypyridin-3-yl)methyl)amino)piperidin-1-yl)ethan-1-one]	≤ 5.00	8.66
COc1cc(-c2nccc(-c3cccc(-c4ccc(CNC5CCOCC5)c(OC)n4)c3C(F)(F)F)c2Cl)ccc1CNC1CCOCC1 [Example 529, N-((6-(3-(3-Chloro-2-(3-methoxy-4-(((tetrahydro-2H-pyran-4-yl)amino)methyl)phenyl)pyridin-4-yl)-2-(trifluoromethyl)phenyl)-2-methoxypyridin-3-yl)methyl)tetrahydro-2H-pyran-4-amine]	≤ 5.00	6.96
COc1nc(-c2cccc(-c3ccnc(-c4ccc5c(c4)S(=O)(=O)CCNC5)c3Cl)c2Cl)ccc1CNC[C@@H]1CCC(=O)N1 [Compound 177, (S)-5-((((6-(2-chloro-3-(3-chloro-2-(1,1-dioxido-2,3,4,5-tetrahydrobenzo[f][1,4]pyridine1334n-8-yl)pyridine-4-yl)phenyl)-2-methoxypyridin-3-yl)methyl)amino)methyl)pyridine1334ne-2-one]	6.76	8.75
COc1cc(-c2nccc(-c3cccc(-c4ccc(CN5CC6(CNC(=O)C6)C5)c(OC)n4)c3Cl)c2Cl)cnc1CNC1CCN(C(C)=O)CC1 [Compound 547, 2-((6-(3-(6′-(((1-acetylpiperidin-4-yl)amino)methyl)-3-chloro-5′-methoxy-[2,3′-bipyridin]-4-yl)-2-chlorophenyl)-2-methoxypyridin-3-yl)methyl)-2,6-diazaspiro[3.4]octan-7-one]	7.16	9.46
COc1cc(-c2nccc(-c3cccc(-c4ccc(CNCCCF)c(OC)n4)c3C(F)(F)F)c2Cl)ccc1CNCCCF [Example 587, N-((6-(3-(3-Chloro-2-(4-(((3-fluoropropyl)amino)methyl)-3-methoxyphenyl)pyridin-4-yl)-2-(trifluoromethyl)phenyl)-2-methoxypyridin-3-yl)methyl)-3-fluoropropan-1-amine]	≤ 5.00	6.80
COc1cc(-c2nccc(-c3cccc(-c4ccc(CN(C)C5CCN(C(C)=O)CC5)c(OC)n4)c3Cl)c2Cl)ccc1CNC1CCN(C(C)=O)CC1	7.31	8.51
COc1cc(-c2nccc(-c3cccc(-c4ccc(CN5CC6(CNC(=O)C6)C5)c(OC)n4)c3Cl)c2Cl)ccc1CN1CCC(NC(C)=O)CC1 [Example 400, N-(1-(4-(3-chloro-4-(2-chloro-3-(6-methoxy-5-((7-oxo-2,6-diazaspiro[3.4]-octan-2-yl)methyl)pyridin-2-yl)-phenyl)pyridin-2-yl)-2-methoxybenzyl)piperidin-4-yl)acetamide]	7.78	9.57
COCCNCc1ccc(-c2nccc(-c3cccc(-c4ccc(CNCCOC)c(OC)n4)c3Cl)c2Cl)cc1OC [Example 446, N-((6-(2-chloro-3-(3-chloro-2-(3-methoxy-4-(((2-methoxyethyl)amino)methyl)phenyl)pyridin-4-yl)phenyl)-2-methoxypyridin-3-yl)methyl)-2-methoxyethan-1-amine]	7.51	8.43
COc1cc(-c2nccc(-c3cccc(NC(=O)c4ccc(CNCCO)cn4)c3C)c2Cl)ccc1CNCCO [Example 648, N-(3-(3-Chloro-2-(4-(((2-hydroxyethyl)amino)methyl)-3-methoxyphenyl)pyridin-4-yl)-2-methylphenyl)-5-(((2-hydroxyethyl)amino)methyl)picolinamide]	6.85	10.30
COc1cc(-c2nccc(-c3cccc(-c4ccc(CN5CC6(CNC(=O)C6)C5)c(OC)n4)c3Cl)c2Cl)ccc1CNC1CCN(C(C)=O)CC1 [Example 332, 2-((6-(3-(2-(4-(((1-acetylpiperidin-4-yl)amino)methyl)-3-methoxyphenyl)-3-chloropyridin-4-yl)-2-chlorophenyl)-2-methoxypyridin-3-yl)methyl)-2,6-diazaspiro[3.4]octan-7-one]	7.91	8.75
COc1nc(-c2ccnc(-c3cccc(NC(=O)c4ccc(CNCCO)cn4)c3C)c2Cl)ccc1CNC[C@@H]1CCC(=O)N1 [Example 771, (S)—N-(3-(3′-chloro-6-methoxy-5-((((5-oxopyrrolidin-2-yl)methyl)amino)methyl)-[2,4′-bipyridin]-2′-yl)-2-methylphenyl)-5-(((2-hydroxyethyl)amino)methyl)picolinamide]	7.54	10.52
COc1nc(-c2cccc(-c3ccnc(-c4ccc5c(c4)CCCC5NC[C@@H]4CCC(=O)N4)c3Cl)c2Cl)ccc1CNC[C@@H]1CCC(=O)N1 (mixture of isomers) [Compound 112, (5S)-5-((((6-(2-chloro-3-(3-chloro-2-(5-((((S)-5-oxopyrrolidin-2-yl)methyl)amino)-5,6,7,8-tetrahydronaphthalen-2-yl)pyridin-4-yl)phenyl)-2-methoxypyridin-3-yl)methyl)amino)methyl)pyrrolidin-2-one]	7.30	9.00
COc1nc(-c2cccc(-c3nccc(-c4ccc(CNC5CCN(C(C)=O)CC5)c(OC)n4)c3Cl)c2Cl)ccc1CNC1CCN(C(C)=O)CC1 [Compound 572, 1-(4-(((6-(3-(5-(((1-Acetylpiperidin-4-yl)amino)methyl)-3′-chloro-6-methoxy-[2,4′-bipyridin]-2′-yl)-2-chlorophenyl)-2-methoxypyridin-3-yl)methyl)amino)piperidin-1-yl)ethan-1-one]	7.76	9.72
COc1cc(-c2nccc(-c3cccc(NC(=O)c4ccc(CNCCO)cn4)c3Cl)c2Cl)ccc1CNCCO [Example 676, N-(2-Chloro-3-(3-chloro-2-(4-(((2-hydroxyethyl)amino)methyl)-3-methoxyphenyl)pyridin-4-yl)phenyl)-5-(((2-hydroxyethyl)amino)methyl)picolinamide]	7.43	10.00
COc1cc(-c2nccc(-c3cccc(-c4ccc(CNC[C@@H]5CCC(=O)N5)c(OC)n4)c3Cl)c2Cl)ccc1CN[C@@H](C)C(=O)O [Compound 130, (4-(3-chloro-4-(2-chloro-3-(6-methoxy-5-(((((S)-5-oxopyrrolidin-2-yl)methyl)amino)methyl)pyridin-2-yl)phenyl)pyridin-2-yl)-2-methoxybenzyl)-L-alanine]	6.80	9.68
COc1cc(-c2nccc(-c3cccc(NC(=O)c4ccc(CNC[C@@H]5CCC(=O)N5)cn4)c3C)c2Cl)cc(F)c1CNC[C@@H]1CCC(=O)N1 [Example 726, N-(3-(3-Chloro-2-(3-fluoro-5-methoxy-4-(((((S)-5-oxopyrrolidin-2-yl)methyl)amino)methyl)phenyl)pyridin-4-yl)-2-methylphenyl)-5-(((((S)-5-oxopyrrolidin-2-yl)methyl)amino)methyl)picolinamide]	7.31	9.38
